{"source": "paper PMC12799219", "about": "“In vitro and in vivo studies on the activity and selectivity of butoconazole in experimental infection by Trypanosoma cruzi” (Memórias do Instituto Oswaldo Cruz, 2026)", "test": "In vivo pharmacokinetic study, plasma levels by LC-MS/MS", "set-up": "species or system BALB/c mice", "conditions": "mice, single dose 100 mg/kg i.p.", "procedure": "In vivo pharmacokinetic study - Adult male specific-pathogen-free BALB/c mice, provided by the Faculty of Veterinary Sciences, National University of La Plata (FCV-UNLP) were used. Animals were housed in cages with four animals per cage, under a 12 h light/dark cycle and controlled temperature, provided with water and food ad libitum and environmental enrichment. A minimum period of six days was given after transport for physiological acclimatisation before any procedure. Five groups of mice (n = 3 per group) were used, one per sampling time. […] Plasma was obtained immediately after blood collection by centrifugation for 10 min at 4,000 rpm and conserved at -17 °C until quantification. […]\nThe equipment used was a Waters Alliance 2695 HPLC coupled to a tandem quadrupole mass spectrometer, Premier XE (Waters Corp.), equipped with an electrospray ionisation source operating in positive mode (ESI+). […] The mass spectrometer was configured to operate in multiple reaction monitoring (MRM) mode, employing two mass transitions for the compound, one for quantification (411.0 > 164.9) and the other for confirmation (413.2 > 164.9).\nUnbound drug concentrations in plasma were estimated by multiplying the analytically determined total drug concentrations by the unbound fraction predicted by Deep-PK.[27]"}
{"molecule": "Clc1ccc(CCC(Cn2ccnc2)Sc2c(Cl)cccc2Cl)cc1", "note": "(centres unmarked) [BTZ, butoconazole]", "values": [{"measurement": "mean peak total plasma concentration", "value": 25.9, "unit": "µM"}, {"measurement": "time of mean peak plasma concentration", "value": 2, "unit": "h"}]}
